{"source": "patent EP2386631A1", "about": "“Purified lipase, methods of modification and applications” (Universiti Putra Malaysia, priority 2010, dated 2011)", "key": {"205y lipase (-SP/TM) [1]": {"system": "205y lipase (-SP/TM)", "assay": "Effect of metal ions on lipase activity", "type": "biochemical, Bacillus sphaericus 205y", "conditions": "1 mM metal chloride, 50 mM potassium phosphate buffer pH 8.0, 37°C, 30 min", "method": "The effect of metal ions on lipase activity was investigated by treating 205y lipase (-SP/TM) with 1 mM and 10 mM of various metal chlorides ( Na^+, K^+, Mg^2+, Ca^2+, Fe^2+, Mn^2+, Zn^2+ and Cu^2+) in 50 mM potassium phosphate buffer pH 8.0 at 37°C for 30 min. The mixture was subjected to lipase assay after treatment and expressed as a percentage of activity without the metal chloride."}, "205y lipase (-SP/TM) [2]": {"system": "205y lipase (-SP/TM)", "assay": "Effect of organic solvents on lipase activity", "type": "biochemical, Bacillus sphaericus 205y", "conditions": "enzyme:solvent 3:1 v/v, 37°C, 30 min; relative to activity without organic solvent", "method": "The activity of 205 lipase (-SP/TM) towards the presence of organic solvents was tested by preincubating a mixture of purified enzyme with organic solvents (3:1, v/v) for 30 min at agitation rate of 200 rpm. Residual activity was measured at optimum temperature and expressed as percentage of activity without organic solvent. […] Mixture of enzyme and organic solvent (3:1 v/v) was incubated at 37°C for 30 min and the residual activity was measured using spectrophotometric method."}, "[3]": {"system": "wild type organic solvent stable lipase secreted by Bacillus sphaericus 205y", "conditions": "presence of the solvent; cited from earlier work"}, "[4]": {"conditions": "cited from earlier work"}, "205y lipase (-SP/TM) [5]": {"system": "205y lipase (-SP/TM)", "assay": "Effect of surfactants on lipase activity", "type": "biochemical, Bacillus sphaericus 205y", "conditions": "0.1% surfactant (text: 1 mM), 37°C, 30 min prior to lipase assay, mean ± SD, n=3", "method": "The activity of 205y lipase (-SP/TM) towards surfactants was determined by preincubating the enzyme with various surfactants at a concentration of 1 mM at 37°C for 30 min. The surfactants used were Tween 20, Tween 40, Tween 60, Tween 80, Triton X-100, sodium dodecyl sulphate (SDS) and sodium lauryl sulphate (SLS). Residual activity was measured colorimetrically and expressed as percentage of activity without surfactant. […]. Table 7. Effect of surfactants on 205y lipase (-SP/TM) activity"}, "205y lipase (-SP/TM) [6]": {"system": "205y lipase (-SP/TM)", "assay": "Effect of inhibitors on lipase activity", "type": "biochemical, Bacillus sphaericus 205y", "conditions": "for Relative activity (100%): 37°C, 30 min prior to lipase assay, mean ± SD, n=3", "method": "The effect of inhibitors were tested on 205y lipase (-SP/TM) activity by preincubating the enzyme with dithiothreitol (DTT), β-mercaptoethanol, phenylmethylsulfonyl fluoride (PMSF), ethylenediaminetetraacetic acid ([…]) except for pepstatin A (1 mM). The residual activity was measured at optimum temperature and expressed as percentage of activity without inhibitor."}}, "note": "Values joined by “and” are separate entries in the source; they are usually repeats but may differ in a detail not shown here. Equal values may be shown once. Square brackets hold non-standard residues; d marks the D form. Peptide text beside a SMILES is read from it. * marks the point of attachment. Sta = CC(C)C[C@H](N)[C@@H](O)CC(=O)O; Isovaleryl = CC(C)CC(=O)*", "data": [{"compound": "[Mg+2]", "note": "[Mg^2+]", "values": [{"measurement": "effect on lipase activity", "setting": "205y lipase (-SP/TM) [1]", "value": "promoted"}]}, {"compound": "Cc1ccccc1", "note": "[toluene]", "values": [{"measurement": "lost in activity", "setting": "205y lipase (-SP/TM) [2]", "value": "more than 50%"}]}, {"compound": "Cc1ccc(C)cc1", "note": "[p-xylene]", "values": [{"measurement": "lost in activity", "setting": "205y lipase (-SP/TM) [2]", "value": "more than 50%"}, {"measurement": "enzyme activity enhanced", "setting": "[3]", "value": 2.9, "unit": "fold"}, {"measurement": "log P", "setting": "[4]", "value": 3.1}]}, {"compound": "[Mn+2]", "note": "[Mn^2+]", "values": [{"measurement": "activity retained", "setting": "205y lipase (-SP/TM) [1]", "value": "> 50", "unit": "%"}]}, {"compound": "CCCCCCCCCC", "note": "[n-decane]", "values": [{"measurement": "enhancement in activity", "setting": "205y lipase (-SP/TM) [2]", "value": "more than 30%"}, {"measurement": "log P", "setting": "[4]", "value": 5.6}]}, {"compound": "n-butanol", "values": [{"measurement": "lost in activity", "setting": "205y lipase (-SP/TM) [2]", "value": "more than 50%"}]}, {"compound": "CCCCCCCCCCCCOS(=O)(=O)[O-].[Na+]", "note": "[SLS, sodium lauryl sulphate]", "values": [{"measurement": "Relative activity (100%)", "setting": "205y lipase (-SP/TM) [5]; sulphate", "value": "52.5% and 52.5 ± 1.9%"}]}, {"compound": "CCO", "note": "[ethanol]", "values": [{"measurement": "enhancement in activity", "setting": "205y lipase (-SP/TM) [2]", "value": "more than 30%"}]}, {"compound": "[Cu+2]", "note": "[Cu^2+]", "values": [{"measurement": "activity retained", "setting": "205y lipase (-SP/TM) [1]", "value": "> 50", "unit": "%"}]}, {"compound": "CCCCCCCCCCCC", "note": "[n-dodecane]", "values": [{"measurement": "lost in activity", "setting": "205y lipase (-SP/TM) [2]", "value": "more than 50%"}, {"measurement": "log P", "setting": "[4]", "value": 6.6}]}, {"compound": "[Ca+2]", "note": "[Ca^2+]", "values": [{"measurement": "effect on lipase activity", "setting": "205y lipase (-SP/TM) [1]", "value": "promoted"}]}, {"compound": "Triton X-100", "values": [{"measurement": "Relative activity (100%)", "setting": "205y lipase (-SP/TM) [5]", "value": "47.3 ± 4.4", "unit": "%"}]}, {"compound": "[Fe+2]", "note": "[Fe^2+]", "values": [{"measurement": "activity retained", "setting": "205y lipase (-SP/TM) [1]", "value": "> 50", "unit": "%"}]}, {"compound": "CC#N", "note": "[acetonitrile]", "values": [{"measurement": "enhancement in activity", "setting": "205y lipase (-SP/TM) [2]", "value": "more than 30%"}, {"measurement": "effect on lipase activity", "setting": "[3]", "value": "complete deactivation"}, {"measurement": "log P", "setting": "[4]", "value": -0.15}]}, {"compound": "C[S+](C)[O-]", "note": "[DMSO, dimethyl sulfoxide]", "values": [{"measurement": "enhancement in activity", "setting": "205y lipase (-SP/TM) [2]", "value": "more than 30%"}, {"measurement": "lipase activity lost", "setting": "[3]", "value": "approximately 80%"}]}, {"compound": "CCCCCCCCCCCCCCCC", "note": "[hexadecane]", "values": [{"measurement": "enhancement in activity", "setting": "205y lipase (-SP/TM) [2]", "value": "more than 30%"}, {"measurement": "log P", "setting": "[4]", "value": 8.8}]}, {"compound": "CCCCCCCCCCO", "note": "[1-decanol]", "values": [{"measurement": "lost in activity", "setting": "205y lipase (-SP/TM) [2]", "value": "more than 50%"}]}, {"compound": "Tween 80", "values": [{"measurement": "Relative activity (100%)", "setting": "205y lipase (-SP/TM) [5]", "value": "29.4 ± 2.4", "unit": "%"}]}, {"compound": "Tween 20", "values": [{"measurement": "Relative activity (100%)", "setting": "205y lipase (-SP/TM) [5]", "value": "31.3 ± 1.1", "unit": "%"}]}, {"compound": "O=S(=O)(F)Cc1ccccc1", "note": "[PMSF, phenylmethylsulfonyl fluoride]", "values": [{"measurement": "Relative activity (100%)", "setting": "205y lipase (-SP/TM) [6]; 1 mM inhibitor", "value": "74.0 ± 3.3", "unit": "%"}, {"measurement": "Relative activity (100%)", "setting": "205y lipase (-SP/TM) [6]; 10 mM inhibitor", "value": "70.3 ± 2.8", "unit": "%"}]}, {"compound": "CCCCCC", "note": "[n-hexane]", "values": [{"measurement": "enzyme activity enhanced", "setting": "[3]", "value": 3.5, "unit": "fold"}]}, {"compound": "CCCCCCCCCCCCOS(=O)(=O)[O-].[Na+]", "note": "[SDS, sodium dodecyl sulphate]", "values": [{"measurement": "Relative activity (100%)", "setting": "205y lipase (-SP/TM) [5]; sulphate", "value": "28.9 ± 2.8", "unit": "%"}]}, {"compound": "CO", "note": "[methanol]", "values": [{"measurement": "enhancement in activity", "setting": "205y lipase (-SP/TM) [2]", "value": "more than 30%"}, {"measurement": "log P", "setting": "[4]", "value": -0.76}]}, {"compound": "O=C(O)CN(CCN(CC(=O)O)CC(=O)O)CC(=O)O", "note": "[EDTA, ethylenediaminetetraacetic acid]", "values": [{"measurement": "Relative activity (100%)", "setting": "205y lipase (-SP/TM) [6]; 1 mM inhibitor", "value": "78.2% and 78.2 ± 1.8%"}, {"measurement": "Relative activity (100%)", "setting": "205y lipase (-SP/TM) [6]; 10 mM inhibitor", "value": "40.1 ± 4.2", "unit": "%"}]}, {"compound": "Tween 60", "values": [{"measurement": "Relative activity (100%)", "setting": "205y lipase (-SP/TM) [5]", "value": "34.0 ± 3.5", "unit": "%"}]}, {"compound": "OCCS", "note": "[β-mercaptoethanol]", "values": [{"measurement": "inhibition", "setting": "205y lipase (-SP/TM) [6]; 1 mM inhibitor", "value": 2.8, "unit": "%"}, {"measurement": "Relative activity (100%)", "setting": "205y lipase (-SP/TM) [6]; 1 mM inhibitor", "value": "97.2 ± 2.7", "unit": "%"}, {"measurement": "Relative activity (100%)", "setting": "205y lipase (-SP/TM) [6]; 10 mM inhibitor", "value": "76.3 ± 1.2", "unit": "%"}]}, {"compound": "[Na+]", "note": "[Na^+]", "values": [{"measurement": "activity retained", "setting": "205y lipase (-SP/TM) [1]", "value": "> 50", "unit": "%"}]}, {"compound": "[K+]", "note": "[K^+]", "values": [{"measurement": "effect on lipase activity", "setting": "205y lipase (-SP/TM) [1]", "value": "promoted"}]}, {"compound": "CC(C)CC(=O)N[C@H](C(=O)N[C@H](C(=O)N[C@@H](CC(C)C)[C@@H](O)CC(=O)N[C@@H](C)C(=O)N[C@@H](CC(C)C)[C@@H](O)CC(=O)O)C(C)C)C(C)C", "note": "[Pepstatin A, pepstatin A] (Isovaleryl-VV[Sta]A[Sta]-OH)", "values": [{"measurement": "Relative activity (100%)", "setting": "205y lipase (-SP/TM) [6]; 1 mM inhibitor", "value": "86.9 ± 1.5", "unit": "%"}]}, {"compound": "Tween 40", "values": [{"measurement": "Relative activity (100%)", "setting": "205y lipase (-SP/TM) [5]", "value": "27.9 ± 1.7", "unit": "%"}]}, {"compound": "[Zn+2]", "note": "[Zn^2+]", "values": [{"measurement": "activity retained", "setting": "205y lipase (-SP/TM) [1]", "value": "> 50", "unit": "%"}]}, {"compound": "O[C@H](CS)[C@H](O)CS", "note": "(racemic) [DTT, dithiothreitol]", "values": [{"measurement": "inhibition", "setting": "205y lipase (-SP/TM) [6]; 1 mM inhibitor", "value": 16.6, "unit": "%"}, {"measurement": "Relative activity (100%)", "setting": "205y lipase (-SP/TM) [6]; 1 mM inhibitor", "value": "83.4 ± 2.0", "unit": "%"}, {"measurement": "Relative activity (100%)", "setting": "205y lipase (-SP/TM) [6]; 10 mM inhibitor", "value": "45.5 ± 2.5", "unit": "%"}]}]}
